Reference: US10072044B2, “Modified kisspeptin peptides and uses thereof” (Yeda Research and Development Co. Ltd., priority 2012, dated 2018)
“Also recorded” adds a separate entry of the source. Bridge positions count the residues as written; N and C are the ends. Ends that are not written are not given here.

Legend:
[1] = tested on: MK-801 treated C57BL/6J mice; assay: PPI in the MK-801 drug-induced model of schizophrenia; assay type: in vivo, mouse
Method: MK-801 (Sigma) was used at 0.1 mg/kg and administered 15 min prior to the PPI analysis.
(§1) Acoustic startle response testing was performed within startle chambers purchased from Med Associates, Inc. (Med Associates, St. Albans, Vt., USA), as described in Cardon et al., 2010. During a period of acclimation, a 65-decibel (dB) background noise was presented for 5-min, and continued throughout the test session. All sessions for testing of acoustic startle response consisted of startle trials (pulse alone, 40-milliseconds (ms), 120-dB), prepulse trials (prepulse 20-ms, 69, 73, 78, or 81 dB followed by a [100-ms delay] pulse), and no-stimulus trials. All sessions were presented in pseudo-random order. The average time between trials was 15 seconds (range 12-30 seconds). Startle response was calculated from the reaction to the first pulse-alone trial.
(§2) PPI was calculated as: % PPI=100−{[(startle response for prepulse+pulse)/(startle response for pulse-alone)]×100}. Reduced PPI indicates schizophrenia-related behavior.
MK-801 (an antagonist of the N-methyl-D-aspartate (NMDA) receptor channel) acts as a psychomimetic agent, inducing psychotic symptoms that mimic the cognitive impairment and behavioral abnormalities associated with schizophrenia.
The neurotransmitter imbalance induced by MK-801 causes PPI dysfunction, one of the characteristic features of patients with schizophrenia. In an experiment depicted in FIG. 2, C57BL/6J mice were injected with Kp-10 (13 μg/mouse, light gray bars), or with Peptides 6 (8.75 μg/mouse, medium gray bars) or 8 (8.75 μg/mouse, dark gray bars) dissolved in DMSO and then diluted in PBS to a final concentration of 0.2% (w/v) DMSO; the control group received 0.2% DMSO in PBS (black bars). After 15 min, MK-801 (0.1 mg/kg) was injected; 15 min later, measurement of the PPI was performed.

mice [2] = assay: Sedative effect (sedative score); conditions: data not shown
Method: Sedative effect was evaluated by observing the mice and scoring their sedative state as follows: 0, spontaneous movement; 1, mild intermittent spontaneous movement; 2, severe intermittent spontaneous movement; 3, no spontaneous movement; 4, loss of auditory reflex; 5, loss of corneal reflex; 6, loss of response to tail pinch.
Sedative effect was evaluated by observing the animal using a sedative score.

mice [3] = assay: Rotarod (forced activity); assay type: in vivo, mouse
Method: Forced activity (Rotarod) was analyzed using the Rotarod apparatus (Jones and Roberts 7650, Ugo Basile, Italy). Animals were placed on an accelerating rod, and time required for each mouse to fall from the rod was recorded. Out of three trails, the longest time taken for an animal to fall from the rod was recorded and used for analysis.

mice [4] = assay: Catalepsy (bar test); assay type: in vivo, mouse
Method: Catalepsy is a state of immobility, and was measured by means of the bar test. The forepaws of the animal were placed on a bar (0.75 cm in diameter and 5 cm above the floor) and the latency until the mouse moved the forepaws off the bar was measured.

mice [5] = assay: Open-field test (spontaneous activity); assay type: in vivo, mouse
Excerpt: The open-field apparatus consisted of a white Plexiglas box (40×40×30 cm) with 16 squares (10×10 cm) painted on the floor (12 outer and 4 inner). Each mouse was placed in the center of the apparatus to initiate a 15-min test session. The number of entrances to the inner squares, time (min) spent in the inner squares, and total distance moved within the field (cm) were monitored.

C57Bl/6J naïve mice = assay: Acoustic startle response / prepulse inhibition (PPI) in naïve mice; assay type: in vivo, mouse; conditions: 30 min before test, prepulse 69, 73, 78 or 81 dB
Method: as §1, §2
To test Peptide 2 (SEQ ID NO: 10), the peptide was dissolved in DMSO and then diluted in PBS to a final concentration of 1% (w/v) DMSO. Male C57Bl/6J naïve mice were injected intraperitoneally with 15 μg of the peptide or with 1% DMSO in PBS (control). Prepulse intensity analysis was performed after 30 minutes at 69, 73, 78 or 81 decibels. […]

BDNF mRNA = conditions: hippocampal slices (Arai et al., 2009); cited from earlier work
[6] = Kp-10, after 60 min (Chan et al., 2011); cited from earlier work
[7] = tested on: SCID mice that have impaired PPI response and several schizophrenia mouse models; conditions: Kp-10 administration, WO 2010/137022; cited from earlier work
several mouse models = conditions: Kp-10, WO 2010/137022; cited from earlier work
naïve mice = conditions: Kp-10, WO 2010/137022 (FIG. 10C); dose equivalent to 0.29 mg/kg Peptide 6; cited from earlier work
[8] = Plasma stability (HPLC, Cerep); assay type: in vitro ADME; conditions: 1 μM in human plasma
Method: 1 μM Peptide 6 was dissolved in human plasma, and peptide concentration was analyzed by HPLC after 0, 0.5, 1, 1.5, 2 h of incubation. The assay was performed by Cerep, Inc (Redmond, Wash., U.S.A).

[9] = 13 μg/mouse, MK-801 0.1 mg/kg after 15 min, PPI 15 min later

With `Cc1nc2n(c(=O)c1CCN1CCC(c3noc4cc(F)ccc34)CC1)CCCC2` [Risperidone] the “PPI in MK-801 treated mice” value ([1]; 0.1 mg/kg i.p. with MK-801 (FIG. 4B)) was “elevated PPI in the MK-801 treated mice” and the “highest dose that can be injected without causing sedative effects (chosen dose)” value (mice [2]) was 0.1 mg/kg.

For `O=C(CCCN1CCC(O)(c2ccc(Cl)cc2)CC1)c1ccc(F)cc1` [Haloperidol], the “forced activity in the Rotarod” value (mice [3]; 1 mg/kg i.p.) was “reduced mice activity”, the catalepsy effect (mice [4]; 1 mg/kg i.p.) was “had catalepsy effects” and the “spontaneous activity in the open field” value (mice [5]; 1 mg/kg i.p.) was “reduced mice activity”.

With `Cc1cc2c(s1)Nc1ccccc1N=C2N1CCN(C)CC1` [Olanzapine] the “highest dose that can be injected without causing sedative effects (chosen dose)” value (mice [2]) was 0.375 mg/kg.

With “Peptide 5: cystine (S—S) cyclic modified Kp-10 derived peptide, used for comparison only (CFGLRWC-NH2; disulfide 1-7; N-terminus assumed; SMILES CC(C)C[C@@H]1NC(=O)CNC(=O)[C@H](Cc2ccccc2)NC(=O)[C@@H](N)CSSC[C@@H](C(N)=O)NC(=O)[C@H](Cc2c[nH]c3ccccc23)NC(=O)[C@H](CCCNC(=N)N)NC1=O)” the “% PPI relative to controls” value (C57Bl/6J naïve mice; 8.3 μg peptide i.p. in 1% DMSO in PBS) was “slightly improved the % PPI at 73, 78 and 81 decibels relative to controls, however, the effect was not significant; also recorded: did not significantly improve the PPI response”.

For YNWNSFGLRF-NH2 [Kp-10], the “BDNF mRNA levels” value (BDNF mRNA) is given as “elevate BDNF mRNA levels”, the “level after 60 min” value [6] is given as “below detectable level” and the “PPI compared to MK-801 treated animals” value [1, 9] is given as “significantly improved PPI compared to the MK-801 treated animals; also recorded: significantly improved PPI compared to animals treated only with MK-801”. For the same molecule, the “PPI compared to control without MK-801 (restoration to normal)” value [1, 9] was “improved PPI after MK-801 administration but did not abolish its affect”, the PPI response levels [7] was “improved PPI response levels” and the “spatial learning and memory in a water maze” value (several mouse models) was “improves spatial learning and memory in a water maze”. The “antidepressant effect / total immobility in tail suspension test” value (naïve mice) was “antidepressant effect; also recorded: potential anti-depressive activity; also recorded: reduced the total immobility”.

With “Peptide 2: cystine (S—S) cyclic modified Kp-10 derived peptide, used for comparison only (CYNWNSFGLRFC-NH2; disulfide 1-12; N-terminus assumed; SMILES CC(C)C[C@@H]1NC(=O)CNC(=O)[C@H](Cc2ccccc2)NC(=O)[C@H](CO)NC(=O)[C@H](CC(N)=O)NC(=O)[C@H](Cc2c[nH]c3ccccc23)NC(=O)[C@H](CC(N)=O)NC(=O)[C@H](Cc2ccc(O)cc2)NC(=O)[C@@H](N)CSSC[C@@H](C(N)=O)NC(=O)[C@H](Cc2ccccc2)NC(=O)[C@H](CCCNC(=N)N)NC1=O)” the “% PPI relative to controls” value (C57Bl/6J naïve mice; 15 μg peptide i.p. in 1% DMSO in PBS) was “slightly improved the % PPI relative to controls, however, the effect was not significant; also recorded: did not significantly improve the PPI response”.

With `C[C@]12N[C@H](Cc3ccccc31)c1ccccc12` [MK-801] the “PPI response compared to PBS injected control” value ([1]; MK-801 alone 0.1 mg/kg, 15 min before PPI) was “the PPI response was reduced compared to the PBS injected control”.

For `CC(C)C[C@@H]1NC(=O)CNC(=O)[C@H](Cc2ccccc2)NC(=O)[C@@H](N)Cc2ccc(cc2)N=Nc2cc(ccc2O)C[C@@H](C(N)=O)NC(=O)[C@H](Cc2c[nH]c3ccccc23)NC(=O)[C@H](CCCNC(=N)N)NC1=O` [Peptide 6, Pap-Phe-Gly-Leu-Arg-Trp-Tyr-NH2], the “forced activity in the Rotarod” value (mice [3]; 0.29 and 2.9 mg/kg i.p.) was “did not affect activity level”, the catalepsy effect (mice [4]; 0.29 and 2.9 mg/kg i.p.) was “did not have catalepsy effect at either dosage tested” and the “spontaneous activity in the open field” value (mice [5]; 0.29 and 2.9 mg/kg i.p.) was “did not affect activity level”. For the same molecule, the “% Mean Compound Remaining” value ([8]; incubation time 0 minutes) was 100.0%, the remaining at 0.5 h, 1 μM ([8]; incubation time 30 minutes, read-out: % Mean Compound Remaining) was 119% and the “% Mean Compound Remaining” value ([8]; incubation time 60 minutes) was 94%. The remaining at 1 h, 1 μM ([8]; incubation time 60 minutes, read-out: % Mean Compound Remaining) was 93.7%, the remaining at 1.5 h, 1 μM ([8]; incubation time 90 minutes, read-out: % Mean Compound Remaining) was 97.2% and the remaining at 2 h, 1 μM ([8]; incubation time 120 minutes, read-out: % Mean Compound Remaining) was 71.8%. The half-life ([8]; read-out: calculated half-life) was > 2 h.
